Source: ChEMBL document CHEMBL4665688, “Discovery of AB680: A Potent and Selective Inhibitor of CD73” (J Med Chem, 2020)

Experiments:
[1] = Clearance in human at 25 mg, iv administered as single infusion for 30 to 60 mins; assay type: ADME, organism-based; settings: in vivo, time 30-60 min
Cytochrome P450 2C19 [2] = target: T1, Cytochrome P450 2C19 (Homo sapiens, UniProt P33261); experiment: Inhibition of CYP2C19 in human liver microsomes using s-mephenytoin as substrate incubated for 5 to 20 mins in presence of NADPH by LC-MS/MS analysis; assay type: ADME; settings: time 5-20 min; read-out: INH
Cytochrome P450 2D6 [3] = target: T2, Cytochrome P450 2D6 (Homo sapiens, UniProt P10635); experiment: Inhibition of CYP2D6 in human liver microsomes using dextromethorphan as substrate incubated for 5 to 20 mins in presence of NADPH by LC-MS/MS analysis; assay type: ADME; settings: time 5-20 min
[4] = Toxicity in human at 0.1 to 25 mg, iv administered as single dose; assay type: organism-based; settings: in vivo, dose 0.1-25 mg
Cytochrome P450 3A4 [5] = target: T3, Cytochrome P450 3A4 (Homo sapiens, UniProt P08684); experiment: Time dependent inhibition of CYP3A4 in human liver microsomes using midazolam as substrate in presence of NADPH by LC-MS/MS analysis; assay type: ADME
[6] = Cmax in human at 25 mg, iv administered as single infusion for 30 to 60 mins; assay type: ADME, organism-based; parameters: route intravenous, dose 25 mg, time 30-60; settings: in vivo
Cytochrome P450 3A4 [7] = target: T3, Cytochrome P450 3A4; experiment: Inhibition of CYP3A4 in human liver microsomes using midazolam as substrate incubated for 5 to 20 mins in presence of NADPH by LC-MS/MS analysis; assay type: ADME; settings: time 5-20 min
Cytochrome P450 2D6 [8] = target: T2, Cytochrome P450 2D6; experiment: Time dependent inhibition of CYP2D6 in human liver microsomes using dextromethorphan as substrate in presence of NADPH by LC-MS/MS analysis; assay type: ADME
Cytochrome P450 2B6 = target: T4, Cytochrome P450 2B6 (Homo sapiens, UniProt P20813); experiment: Induction of CYP2B6 (unknown origin) assessed as effect on CYP2B6 mRNA expression; assay type: ADME
T4 sequence (P20813 whole entry): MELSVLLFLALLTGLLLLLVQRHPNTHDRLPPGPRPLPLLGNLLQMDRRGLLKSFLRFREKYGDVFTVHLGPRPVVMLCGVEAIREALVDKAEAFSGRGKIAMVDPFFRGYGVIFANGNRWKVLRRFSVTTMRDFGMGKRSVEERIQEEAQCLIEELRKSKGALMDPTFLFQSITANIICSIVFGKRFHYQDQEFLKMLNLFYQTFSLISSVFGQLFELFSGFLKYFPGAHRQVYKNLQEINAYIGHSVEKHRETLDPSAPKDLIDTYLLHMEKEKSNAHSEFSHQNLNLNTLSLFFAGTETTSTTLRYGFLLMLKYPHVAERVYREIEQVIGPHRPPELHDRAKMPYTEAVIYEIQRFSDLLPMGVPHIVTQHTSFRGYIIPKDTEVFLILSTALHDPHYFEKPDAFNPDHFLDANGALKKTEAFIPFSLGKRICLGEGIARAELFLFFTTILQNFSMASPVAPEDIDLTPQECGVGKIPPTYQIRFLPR

[9] = Half life in human at 16 mg, iv administered as single infusion for 30 to 60 mins; assay type: ADME, organism-based; settings: in vivo, time 30-60 min
Cytochrome P450 2C19 [10] = target: T1, Cytochrome P450 2C19; experiment: Time dependent inhibition of CYP2C19 in human liver microsomes using s-mephenytoin as substrate in presence of NADPH by LC-MS/MS analysis; assay type: ADME

T3 sequence (P08684 whole entry, the tested form may be a part): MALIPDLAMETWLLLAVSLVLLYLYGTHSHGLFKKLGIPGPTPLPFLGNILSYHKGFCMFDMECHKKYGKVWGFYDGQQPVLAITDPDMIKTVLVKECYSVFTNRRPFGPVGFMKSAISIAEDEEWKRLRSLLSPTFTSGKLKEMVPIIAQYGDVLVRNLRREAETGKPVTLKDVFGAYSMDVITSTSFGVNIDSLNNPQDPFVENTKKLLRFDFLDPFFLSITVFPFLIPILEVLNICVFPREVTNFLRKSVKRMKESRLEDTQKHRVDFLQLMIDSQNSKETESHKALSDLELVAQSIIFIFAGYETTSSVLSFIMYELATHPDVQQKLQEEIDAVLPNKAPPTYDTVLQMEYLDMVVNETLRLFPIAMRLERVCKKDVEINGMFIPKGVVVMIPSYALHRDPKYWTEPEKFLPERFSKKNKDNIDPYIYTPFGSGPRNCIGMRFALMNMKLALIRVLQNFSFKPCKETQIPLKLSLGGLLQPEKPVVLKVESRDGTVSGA
T2 sequence (P10635 whole entry): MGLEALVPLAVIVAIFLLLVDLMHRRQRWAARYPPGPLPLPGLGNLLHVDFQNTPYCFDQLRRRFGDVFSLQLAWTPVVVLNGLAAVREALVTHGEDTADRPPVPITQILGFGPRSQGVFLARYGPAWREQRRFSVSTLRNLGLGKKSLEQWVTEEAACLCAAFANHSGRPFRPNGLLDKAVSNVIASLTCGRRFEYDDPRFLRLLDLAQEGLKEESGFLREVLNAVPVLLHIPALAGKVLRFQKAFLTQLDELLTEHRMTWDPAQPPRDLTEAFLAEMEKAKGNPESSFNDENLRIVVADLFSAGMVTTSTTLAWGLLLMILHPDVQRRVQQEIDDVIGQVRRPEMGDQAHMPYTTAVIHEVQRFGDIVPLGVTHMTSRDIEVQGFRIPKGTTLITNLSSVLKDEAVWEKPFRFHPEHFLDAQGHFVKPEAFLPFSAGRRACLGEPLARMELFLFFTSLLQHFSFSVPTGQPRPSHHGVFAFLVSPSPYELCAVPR
T1 sequence (P33261 whole entry): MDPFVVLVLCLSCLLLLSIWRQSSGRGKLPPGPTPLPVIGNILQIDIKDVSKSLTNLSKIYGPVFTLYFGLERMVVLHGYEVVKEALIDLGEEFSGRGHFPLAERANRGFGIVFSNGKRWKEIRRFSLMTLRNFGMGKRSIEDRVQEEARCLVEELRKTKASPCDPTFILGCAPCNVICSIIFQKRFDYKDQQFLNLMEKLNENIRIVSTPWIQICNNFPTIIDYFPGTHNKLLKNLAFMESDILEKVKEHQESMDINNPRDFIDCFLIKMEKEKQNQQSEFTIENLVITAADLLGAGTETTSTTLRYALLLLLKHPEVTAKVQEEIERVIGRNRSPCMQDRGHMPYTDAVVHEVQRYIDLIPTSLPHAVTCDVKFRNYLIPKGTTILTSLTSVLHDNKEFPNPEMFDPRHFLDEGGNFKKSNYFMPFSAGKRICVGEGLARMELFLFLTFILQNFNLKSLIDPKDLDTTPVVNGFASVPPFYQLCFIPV

## C[C@H](Nc1cc(Cl)nc2c1cnn2[C@@H]1O[C@H](COP(=O)(O)CP(=O)(O)O)[C@@H](O)[C@H]1O)c1ccccc1F
[1]
  clearance: 1.14 mL/min
Cytochrome P450 2C19 [2]
  IC50: > 100 µM
Cytochrome P450 2D6 [3]
  INH: > 100 µM
[4]
  Activity: Non-Toxic
Cytochrome P450 3A4 [5]
  TDI: Not Active
[6]
  Cmax: 5170 ng/mL
Cytochrome P450 3A4 [7]
  INH: > 100 µM
Cytochrome P450 2D6 [8]
  TDI: Not Active
Cytochrome P450 2B6
  Activity: Not Active
[9]
  half-life: 66.6 h
Cytochrome P450 2C19 [10]
  TDI: Not Active
